{"source": "patent US7592003B2", "about": "“Regulation of toll-like receptors on stem cells” (Oklahoma Medical Research Foundation, priority 2005, dated 2009)", "key": {"LKS^+ cells": {"system": "LKS^+ cells", "assay": "Serum-free, stromal cell-free culture of sorted LKS+ cells, lineage markers by flow cytometry", "assay_type": "cell-based, mouse", "description": "FIGS. 2A-D—Activation of TLRs through MyD88 on LKS^+ cells leads to myeloid cell differentiation. (FIG. 2A) Left, sorted LKS^+ cells (10,000 cells/well) from C57BL/6 or MyD88^−/− mice were cultured in the presence of FL and SCF with medium alone, LPS (10 μg/ml) or Pam3CSK4 (1 μg/ml). After 72 h in culture, cells were analyzed by flow cytometry for expression of lineage markers. Percentages indicate the frequencies of Lin^+ or Lin^− cells. Right, the bar graph depicts yields, i.e., numbers of Lin^+ cell recovered per input progenitor and the data represent mean values with standard deviations from triplicate cultures (*P<0.01). The results are representative of five independent experiments. […] After 72 or 96 h in culture, cells were analyzed by flow cytometry for Mac-1 and F4/80. […] After 72 h in culture, cells were analyzed by flow cytometry for expression of lineage markers. […]\nFIG. 11A-B—TLR stimulation causes a progression of Lin^+ cells from LKS^+ cells and soluble CD14 augments the acquisition of Mac-1 and F4/80. […] After 24 or 48 h in culture, cells were analyzed by flow cytometry for expression of lineage markers and percentages of Lin^+ or Lin^− cells are indicated. […] After 24, 48, or 72 h in culture, cells were analyzed by flow cytometry for expression of lineage markers. […] After 72 h in culture, cells were analyzed by flow cytometry for expression of Mac-1 and F4/80. […]"}, "CLP": {"system": "CLP", "assay": "Single cell culture of TLR ligand pre-treated CLP on OP9 stromal cells", "assay_type": "cell-based, mouse", "details": "24 h pre-treatment, 10 days on OP9", "description": "FIG. 7—Altered differentiation patterns of single lymphoid progenitors activated via TLRs. Sorted CLP were cultured in the presence of SCF, FL and IL-7 with medium alone, LPS (10 μg/ml) or Pam3CSK4 (1 μg/ml). After 24 h, cultured cells were harvested and washed three times with medium. Single cultured cells were then sorted and re-cultured on OP9 stromal cells in 96-well plates for 10 days in the presence of SCF, FL and IL-7. Positive colonies were examined by flow cytometry (representative examples shown on top row). The frequencies of wells with each of these differentiation patterns are shown along with total numbers of clones observed.\nSingle cell culture on OP9 stromal cells. Sorted CLP were cultured with X-VIVO15in the presence of SCF (20 ng/ml), FL (100 ng/ml) and IL-7 (1 ng/ml) with or without LPS (10 μg/ml), or Pam3CSK4 (1 μg/ml). After 24 h, cultured cells were harvested and washed with medium three times. A single cell sorting for the cultured cells was then conducted on a FACSAria™ and a single cell was plated on OP9 stromal cells in 96-well plate and cultured for 10 days in the presence of SCF (20 ng/ml), FL (100 ng/ml) and IL-7 (1 ng/ml). […] Positive wells (more than 30 cells) were determined by microscopic observation. Cells were harvested and then stained with mAbs to CD19, CD11c, and Mac-1 and analyzed by flow cytometry. […]"}}}
{"substance": "Pam3CSK4", "values": [{"measurement": "Increase of absolute numbers of Lin+ cells", "setting": "LKS^+ cells; LKS+ cells with FL and SCF, within 72 h", "result": "approximately eight-fold"}, {"measurement": "Increase of Lin+ cells with cells from MyD88-deficient mice", "setting": "LKS^+ cells; MyD88-deficient LKS+ cells, 72 h", "result": "did not occur"}, {"measurement": "Numbers of pure CD19+ B cell clones", "setting": "CLP", "result": "did not alter the production of CD19^+ B cell clones"}, {"measurement": "Numbers of pure mDC colonies", "setting": "CLP", "result": "enhanced production of colonies with pure mDC"}]}
